Publication PMC10712727, “Safety, Tolerability, and Pharmacokinetics of Senaparib, a Novel PARP1/2 Inhibitor, in Chinese Patients With Advanced Solid Tumors: A Phase I Trial” (The Oncologist, 2023)

Test system: patients with advanced solid tumors
Experiment: Safety: treatment-emergent and senaparib-related adverse events graded per NCI CTCAE v4.03
Format: in vivo
Procedure: This phase I, open-label, multicenter, dose-escalation, and dose-expansion study was conducted at three national clinical institutions in China. […] At baseline, all patients enrolled in the dose-escalation phase had to have at least one evaluable lesion, and those in the dose-expansion period had to have at least one measurable lesion, according to Response Evaluation Criteria in Solid Tumors version 1.1 (RECIST v1.1).[16] Entry to the dose-expansion cohort required the presence of a BRCA mutation, with the exception of patients with ovarian carcinoma, fallopian tube carcinoma, and primary peritoneal carcinoma. Full study eligibility criteria are provided in Supplementary Table S1.
Dose escalation was conducted using a modified Fibonacci 3 + 3 method (Supplementary Fig. S1).[17] Patients were administered oral senaparib from a planned starting dose of 2 mg once daily (QD), with preliminary dose escalation to 120 mg via nine dose groups, in order of their entry into the study. At a given dose level, each patient received a single dose of senaparib followed by a 7-day washout period. They then entered a continuous dosing period to confirm the safety and PK profile, in which they received senaparib QD from day 1 to day 21 of each 3-week cycle. Progression to the next higher dose required approval from the Data Safety Monitoring Committee (DSMC) upon review of the safety and PK data of the previous dose. A 50-mg twice-daily (BID) dosing group was added (planned enrollment, n = 6 patients) based on a DSMC review of the safety, PK, and efficacy analysis of the completed QD dose groups in the phase I clinical trial of senaparib dose escalation in Australia (NCT03507543), which commenced prior to the start of this trial.
The dose-expansion period included 3 populations: dose groups in which at least one patient achieved complete response (CR) or partial response (PR) per RECIST v1.1[16] and 1 dose group higher (evaluated for safety), as well as the dose group at the maximum tolerated dose (MTD)/recommended phase II dose (RP2D). Each of these groups included those patients in the respective dose-escalation group plus a planned additional 10 patients (approximately 20 patients in the MTD/RP2D group) with BRCA^mut+ solid tumors (ovarian, breast, or prostate cancer were preferred, and ovarian cancer could be BRCA wild type). Patients received senaparib monotherapy orally QD or BID (50-mg dose only) over each 3-week cycle until disease progression or unacceptable toxicity.
DLTs were predefined toxicities (Supplementary Table S2) recorded over the 7 days following the single-dose administration of senaparib and during the first treatment cycle (day 1-day 21) for each dose group in the dose-escalation period only. The MTD was defined as the maximum dose at which ≤1/6 patients experienced a DLT. Senaparib PK parameters were derived from blood samples collected from patients after the single administration, and at regular intervals during the first cycle of the dose-escalation and dose-expansion periods. Plasma concentrations of senaparib were determined using high-performance liquid chromatography-tandem mass spectrometry. Tumor response was assessed every 6 weeks per RECIST v1.1,[16] recording objective response rate (ORR), disease control rate (DCR), duration of response (DOR), and progression-free survival (PFS) by dose level for all patients and for those harboring BRCA^mut+ tumors.

## O=C(c1cc(Cn2c(=O)[nH]c(=O)c3c(F)cccc32)ccc1F)N1CCN(c2ncccn2)CC1 [Senaparib]
10 mg QD n = 3
  Blood creatinine increased TRAE, Gr≥3: 0 n (%)
  Hypokalemia TRAE, All: 0 n (%)
  Hypokalemia TRAE, Gr≥3: 0 n (%)
  Nausea TRAE, All: 0 n (%)
  Nausea TRAE, Gr≥3: 0 n (%)
  Neutrophil count decreased TRAE, All: 0 n (%)
  Neutrophil count decreased TRAE, Gr≥3: 0 n (%)
  Platelet count decreased TRAE, All: 0 n (%)
  Platelet count decreased TRAE, Gr≥3: 0 n (%)
  SAEs, events: 0 n ev
  SAEs, patients: 0 n (%)
  TEAE Grade ≥3, events: 0 n ev
  TEAE Grade ≥3, patients: 0 n (%)
  TEAEs leading to death, events: 0 n ev
  TEAEs leading to death, patients: 0 n (%)
  TEAEs leading to dose discontinuation, events: 0 n ev
  TEAEs leading to dose discontinuation, patients: 0 n (%)
  TEAEs leading to dose interruption, events: 0 n ev
  TEAEs leading to dose interruption, patients: 0 n (%)
  TEAEs leading to dose reduction, events: 0 n ev
  TEAEs leading to dose reduction, patients: 0 n (%)
  TRAEs Grade ≥3, events: 0 n ev
  TRAEs Grade ≥3, patients: 0 n (%)
  TRAEs, patients: 3 (100) n (%)
  Vomiting TRAE, All: 0 n (%)
  Vomiting TRAE, Gr≥3: 0 n (%)
  WBC decreased TRAE, All: 1 (33.3) n (%)
  WBC decreased TRAE, Gr≥3: 0 n (%)
20 mg QD n = 5
  ALT increased TRAE, All: 0 n (%)
  ALT increased TRAE, Gr≥3: 0 n (%)
  AST increased TRAE, All: 0 n (%)
  AST increased TRAE, Gr≥3: 0 n (%)
  Anemia TRAE, All: 1 (20.0) n (%)
  Anemia TRAE, Gr≥3: 1 (20.0) n (%)
  Any TEAE, All: 5 (100) n (%)
  Any TEAE, Gr≥3: 2 (40.0) n (%)
  Any TEAE, events: 30 n ev
  Any TEAE, patients: 5 (100) n (%)
  Any TRAE, All: 3 (60.0) n (%)
  Any TRAE, Gr≥3: 1 (20.0) n (%)
  Appetite decreased TRAE, All: 0 n (%)
  Appetite decreased TRAE, Gr≥3: 0 n (%)
  Asthenia TRAE, All: 1 (20.0) n (%)
  Asthenia TRAE, Gr≥3: 0 n (%)
  Blood bilirubin increased TRAE, All: 0 n (%)
  Blood bilirubin increased TRAE, Gr≥3: 0 n (%)
  Blood creatinine increased TRAE, All: 1 (20.0) n (%)
  Blood creatinine increased TRAE, Gr≥3: 0 n (%)
  Hypokalemia TRAE, All: 1 (20.0) n (%)
  Hypokalemia TRAE, Gr≥3: 0 n (%)
  Nausea TRAE, All: 1 (20.0) n (%)
  Nausea TRAE, Gr≥3: 0 n (%)
  Neutrophil count decreased TRAE, All: 0 n (%)
  Neutrophil count decreased TRAE, Gr≥3: 0 n (%)
  Platelet count decreased TRAE, All: 1 (20.0) n (%)
  Platelet count decreased TRAE, Gr≥3: 0 n (%)
  SAEs, events: 1 n ev
  SAEs, patients: 1 (20.0) n (%)
  TEAE Grade ≥3, events: 3 n ev
  TEAE Grade ≥3, patients: 2 (40.0) n (%)
  TEAEs leading to death, events: 1 n ev
  TEAEs leading to death, patients: 1 (20.0) n (%)
  TEAEs leading to dose discontinuation, events: 2 n ev
  TEAEs leading to dose discontinuation, patients: 2 (40.0) n (%)
  TEAEs leading to dose interruption, events: 1 n ev
  TEAEs leading to dose interruption, patients: 1 (20.0) n (%)
  TEAEs leading to dose reduction, events: 0 n ev
  TEAEs leading to dose reduction, patients: 0 n (%)
  TRAEs Grade ≥3, events: 1 n ev
  TRAEs Grade ≥3, patients: 1 (20.0) n (%)
  TRAEs, events: 15 n ev
  TRAEs, patients: 3 (60.0) n (%)
  Vomiting TRAE, All: 0 n (%)
  Vomiting TRAE, Gr≥3: 0 n (%)
  WBC decreased TRAE, All: 1 (20.0) n (%)
  WBC decreased TRAE, Gr≥3: 0 n (%)
40 mg QD n = 3
  ALT increased TRAE, All: 0 n (%)
  ALT increased TRAE, Gr≥3: 0 n (%)
  AST increased TRAE, All: 0 n (%)
  AST increased TRAE, Gr≥3: 0 n (%)
  Anemia TRAE, All: 1 (33.3) n (%)
  Anemia TRAE, Gr≥3: 0 n (%)
  Any TEAE, All: 3 (100) n (%)
  Any TEAE, Gr≥3: 0 n (%)
  Any TEAE, events: 7 n ev
  Any TEAE, patients: 3 (100) n (%)
  Any TRAE, All: 3 (100) n (%)
  Any TRAE, Gr≥3: 0 n (%)
  Appetite decreased TRAE, All: 0 n (%)
  Appetite decreased TRAE, Gr≥3: 0 n (%)
  Asthenia TRAE, All: 1 (33.3) n (%)
  Asthenia TRAE, Gr≥3: 0 n (%)
  Blood bilirubin increased TRAE, All: 0 n (%)
  Blood bilirubin increased TRAE, Gr≥3: 0 n (%)
  Blood creatinine increased TRAE, All: 1 (33.3) n (%)
  Blood creatinine increased TRAE, Gr≥3: 0 n (%)
  Hypokalemia TRAE, All: 0 n (%)
  Hypokalemia TRAE, Gr≥3: 0 n (%)
  Nausea TRAE, All: 0 n (%)
  Nausea TRAE, Gr≥3: 0 n (%)
  Neutrophil count decreased TRAE, All: 0 n (%)
  Neutrophil count decreased TRAE, Gr≥3: 0 n (%)
  Platelet count decreased TRAE, All: 0 n (%)
  Platelet count decreased TRAE, Gr≥3: 0 n (%)
  SAEs, events: 0 n ev
  SAEs, patients: 0 n (%)
  TEAE Grade ≥3, events: 0 n ev
  TEAE Grade ≥3, patients: 0 n (%)
  TEAEs leading to death, events: 0 n ev
  TEAEs leading to death, patients: 0 n (%)
  TEAEs leading to dose discontinuation, events: 0 n ev
  TEAEs leading to dose discontinuation, patients: 0 n (%)
  TEAEs leading to dose interruption, events: 0 n ev
  TEAEs leading to dose interruption, patients: 0 n (%)
  TEAEs leading to dose reduction, events: 0 n ev
  TEAEs leading to dose reduction, patients: 0 n (%)
